According to patent US11053204B2, “Pyrimidinyloxy benzene derivatives as herbicides” (FMC Corporation, priority 2015, dated 2021):

Columns and labels:
Type in all cases: in vivo
[1] = test system: blackgrass (Alopecurus myosuroides); assay: Test A postemergence, visual injury rating; conditions: Alopecurus myosuroides, post-emergence, 240 h, 0 is no effect, 100 is complete control, read-out: Blackgrass plant response rating (0 to 100 scale)
Procedure, shortened: (§1)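 Visual injury scored 0–100 (100 = complete control) against untreated controls about 10 days after treatment in a greenhouse. Test chemicals, formulated with surfactant in non-phytotoxic solvent, were sprayed on soil preemergence or on 2-10 cm, one- to two-leaf plants postemergence.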

[2] = test system: barnyardgrass (Echinochloa crus-galli); assay: Test A postemergence, visual injury rating; conditions: Echinochloa crus-galli, post-emergence, 240 h, 0 is no effect, 100 is complete control, read-out: Barnyardgrass plant response rating (0 to 100 scale)
Procedure, shortened: as §1

corn (Zea mays) = assay: Test A postemergence, visual injury rating; conditions: Zea mays, post-emergence, 240 h, 0 is no effect, 100 is complete control, read-out: Corn plant response rating (0 to 100 scale)
Procedure, shortened: as §1

[3] = test system: Italian ryegrass (Lolium multiflorum); assay: Test A postemergence, visual injury rating; conditions: Lolium multiflorum, post-emergence, 240 h, 0 is no effect, 100 is complete control, read-out: Ryegrass, Italian plant response rating (0 to 100 scale)
Procedure, shortened: as §1

[4] = test system: wheat (Triticum aestivum); assay: Test A postemergence, visual injury rating; conditions: Triticum aestivum, post-emergence, 240 h, 0 is no effect, 100 is complete control, read-out: Wheat plant response rating (0 to 100 scale)
Procedure, shortened: as §1

[5] = test system: ragweed (common ragweed, Ambrosia elatior); assay: Test A postemergence, visual injury rating; conditions: Ambrosia artemisiifolia, post-emergence, 240 h, 0 is no effect, 100 is complete control, read-out: Ragweed plant response rating (0 to 100 scale)
Procedure, shortened: as §1

[6] = test system: giant foxtail (Setaria faberii); assay: Test A postemergence, visual injury rating; conditions: Setaria faberi, post-emergence, 240 h, 0 is no effect, 100 is complete control, read-out: Foxtail, Giant plant response rating (0 to 100 scale)
Procedure, shortened: as §1

[7] = test system: galium (catchweed bedstraw, Galium aparine); assay: Test A postemergence, visual injury rating; conditions: Galium, post-emergence, 240 h, 0 is no effect, 100 is complete control, read-out: Galium plant response rating (0 to 100 scale)
Procedure, shortened: as §1

[8] = test system: pigweed (Amaranthus retroflexus); assay: Test A postemergence, visual injury rating; conditions: Amaranthus retroflexus, post-emergence, 240 h, 0 is no effect, 100 is complete control, read-out: Pigweed plant response rating (0 to 100 scale)
Procedure, shortened: as §1

kochia (Kochia scoparia) = assay: Test A postemergence, visual injury rating; conditions: Bassia scoparia, post-emergence, 240 h, 0 is no effect, 100 is complete control, read-out: Kochia plant response rating (0 to 100 scale)
Procedure, shortened: as §1

[9] = test system: blackgrass (Alopecurus myosuroides); assay: Test C postemergence, plant response rating; conditions: Alopecurus myosuroides, post-emergence
Procedure, shortened: (§2)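 Greenhouse plants rated visually against untreated controls 13–15 d after treatment, scale 0 = no effect to 100 = complete control. Postemergence sprays went onto potted plants 2–18 cm tall (1–4 leaves); preemergence sprays onto soil freshly sown in loam–sand or silt loam, chemicals formulated in non-phytotoxic solvent with surfactant.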

[10] = test system: oilseed rape (Brassica napus); assay: Test C postemergence, plant response rating; conditions: Brassica napus, post-emergence
Procedure, shortened: as §2

[11] = test system: ryegrass, Italian (Italian ryegrass, Lolium multiflorum); assay: Test C postemergence, plant response rating; conditions: Lolium multiflorum, post-emergence
Procedure, shortened: as §2

[12] = test system: chickweed (common chickweed, Stellaria media); assay: Test C postemergence, plant response rating; conditions: Stellaria media, post-emergence
Procedure, shortened: as §2

[13] = test system: waterhemp (common waterhemp, Amaranthus rudis); assay: Test C postemergence, plant response rating; conditions: for Plant response rating, Waterhemp: scale 0 to 100; for Waterhemp plant response rating: scale 0 to 100 (0 no effect, 100 complete control)
Procedure, shortened: as §2

soybean (Glycine max) = assay: Test C postemergence, plant response rating; conditions: Glycine max, post-emergence
Procedure, shortened: as §2

[14] = test system: galium (catchweed bedstraw, Galium aparine); assay: Test C postemergence, plant response rating; conditions: Galium, post-emergence
Procedure, shortened: as §2

[15] = test system: wheat (winter wheat, Triticum aestivum); assay: Test C postemergence, plant response rating; conditions: Triticum aestivum, post-emergence
Procedure, shortened: as §2

[16] = test system: foxtail, giant (giant foxtail, Setaria faberii); assay: Test C postemergence, plant response rating; conditions: Setaria faberi, post-emergence
Procedure, shortened: as §2

[17] = 62 g ai/ha, scale 0 to 100 (0 no effect, 100 complete control)
[18] = 125 g ai/ha, scale 0 to 100 (0 no effect, 100 complete control)

For `C=CCOC(=O)c1c(Br)cccc1Oc1ncc(Cl)cn1` [Compound 22, 2-propen-1-yl 2-bromo-6-[(5-chloro-2-pyrimidinyl)oxy]benzoate], the pest or weed control at 125 g/ha ([1]; 125 g ai/ha) was 60%, the pest or weed control at 500 g/ha ([1]; 500 g ai/ha) was 90% and the pest or weed control at 125 g/ha ([2]; 125 g ai/ha) was 60%. The pest or weed control at 500 g/ha ([2]; 500 g ai/ha) was 100%, the plant injury at 125 g/ha (corn (Zea mays); 125 g ai/ha) was 30% and the plant injury at 500 g/ha (corn (Zea mays); 500 g ai/ha) was 50%. For the same compound, the pest or weed control at 125 g/ha ([3]; 125 g ai/ha) was 0%, the pest or weed control at 500 g/ha ([3]; 500 g ai/ha) was 60% and the plant injury at 125 g/ha ([4]; 125 g ai/ha) was 0%. It also gave a plant injury at 500 g/ha ([4]; 500 g ai/ha) of 30%, a pest or weed control at 125 g/ha ([5]; 125 g ai/ha) of 0% and a pest or weed control at 500 g/ha ([5]; 500 g ai/ha) of 30%. The pest or weed control at 125 g/ha ([6]; 125 g ai/ha) was 80%, the pest or weed control at 500 g/ha ([6]; 500 g ai/ha) was 100% and the pest or weed control at 125 g/ha ([7]; 125 g ai/ha) was 30%. For the same compound, the pest or weed control at 500 g/ha ([7]; 500 g ai/ha) was 90%, the pest or weed control at 125 g/ha ([8]; 125 g ai/ha) was 100% and the pest or weed control at 500 g/ha ([8]; 500 g ai/ha) was 100%. The pest or weed control at 125 g/ha (kochia (Kochia scoparia); 125 g ai/ha) was 90%, the pest or weed control at 500 g/ha (kochia (Kochia scoparia); 500 g ai/ha) was 100% and the pest or weed control at 16 g/ha ([9]; 16 g ai/ha, scale 0 to 100) was 0%. The pest or weed control at 31 g/ha ([9]; 31 g ai/ha, scale 0 to 100) was 0%, the pest or weed control at 62 g/ha [9, 17] was 0% and the pest or weed control at 125 g/ha [9, 18] was 5%. For the same compound, the plant injury at 16 g/ha ([10]; 16 g ai/ha, scale 0 to 100) was 35%, the plant injury at 31 g/ha ([10]; 31 g ai/ha, scale 0 to 100) was 40% and the plant injury at 62 g/ha [10, 17] was 55%. It also gave a plant injury at 125 g/ha [10, 18] of 80%, a pest or weed control at 16 g/ha ([11]; 16 g ai/ha, scale 0 to 100) of 0% and a pest or weed control at 31 g/ha ([11]; 31 g ai/ha, scale 0 to 100) of 0%. The pest or weed control at 62 g/ha [11, 17] was 0%, the pest or weed control at 125 g/ha [11, 18] was 5% and the pest or weed control at 16 g/ha ([12]; 16 g ai/ha, scale 0 to 100) was 20%. For the same compound, the pest or weed control at 31 g/ha ([12]; 31 g ai/ha, scale 0 to 100) was 60%, the pest or weed control at 62 g/ha [12, 17] was 65% and the pest or weed control at 125 g/ha [12, 18] was 60%. The “Plant response rating, Waterhemp” value ([13]; 16 g ai/ha) was 75, the “Plant response rating, Waterhemp” value ([13]; 31 g ai/ha) was 75 and the “Waterhemp plant response rating” value ([13]; 62 g ai/ha) was 85. The “Waterhemp plant response rating” value ([13]; 125 g ai/ha) was 80, the plant injury at 16 g/ha (soybean (Glycine max); 16 g ai/ha, scale 0 to 100) was 40% and the plant injury at 31 g/ha (soybean (Glycine max); 31 g ai/ha, scale 0 to 100) was 40%. It also gave a plant injury at 62 g/ha (soybean (Glycine max); [17]) of 35%, a plant injury at 125 g/ha (soybean (Glycine max); [18]) of 75% and a pest or weed control at 16 g/ha ([14]; 16 g ai/ha, scale 0 to 100) of 10%. It also gave a pest or weed control at 31 g/ha ([14]; 31 g ai/ha, scale 0 to 100) of 25%, a pest or weed control at 62 g/ha [14, 17] of 60% and a pest or weed control at 125 g/ha [14, 18] of 70%. It also gave a plant injury at 16 g/ha ([15]; 16 g ai/ha, scale 0 to 100) of 0%, a plant injury at 31 g/ha ([15]; 31 g ai/ha, scale 0 to 100) of 0% and a plant injury at 62 g/ha ([15]; 62 g ai/ha, scale 0 to 100 (0 no effect, 100 complete control), read-out: Wheat plant response rating) of 0%. It also gave a plant injury at 125 g/ha [15, 18] of 0%, a pest or weed control at 16 g/ha ([16]; 16 g ai/ha, scale 0 to 100) of 10% and a pest or weed control at 31 g/ha ([16]; 31 g ai/ha, scale 0 to 100) of 10%. It also gave a pest or weed control at 62 g/ha [16, 17] of 15% and a pest or weed control at 125 g/ha [16, 18] of 25%.
